{"source": "ChEMBL document CHEMBL1134448", "about": "“Design, synthesis, and proposed active site binding analysis of monocyclic 2-azetidinone inhibitors of prostate specific antigen” (J Med Chem, 2001)", "data": [{"target": "Prostate-specific antigen (KLK3) (Homo sapiens) (UniProt P07288)", "sequence (P07288 whole entry, looked up)": "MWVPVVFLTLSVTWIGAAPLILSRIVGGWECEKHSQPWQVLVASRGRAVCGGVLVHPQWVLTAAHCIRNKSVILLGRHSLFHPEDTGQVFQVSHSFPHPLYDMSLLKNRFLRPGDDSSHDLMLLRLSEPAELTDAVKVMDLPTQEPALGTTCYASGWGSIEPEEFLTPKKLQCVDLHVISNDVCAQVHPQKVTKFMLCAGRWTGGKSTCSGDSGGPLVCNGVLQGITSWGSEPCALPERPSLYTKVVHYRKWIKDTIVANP", "assay": "Inhibition of Prostate specific antigen PSA (Serine Protease)", "units": {"IC50": "nM"}, "values": [{"compound": "O=C(O)c1ccc(COC(=O)[C@@H]2[C@H](Cc3ccccc3)C(=O)N2C(=O)Cc2cccc(C(=O)OCc3ccccc3)c2)cc1", "IC50": 8980}, {"compound": "O=C(O)c1ccc(COC(=O)[C@@H]2[C@H](Cc3ccc(O)cc3)C(=O)N2C(=O)Cc2cccc(C(=O)OCc3ccccc3)c2)cc1", "IC50": 3500}, {"compound": "O=C(OCc1ccccc1)c1cccc(CC(=O)N2C(=O)[C@@H](Cc3ccc(O)cc3)[C@H]2C(=O)OCc2ccccc2)c1", "note": "(stereo in doubt; (3S,4S)-18)", "IC50": 226}, {"compound": "O=C(OCc1ccccc1)c1cccc(CC(=O)N2C(=O)[C@@H](Cc3ccc(O)cc3)[C@H]2C(=O)OCc2ccccc2)c1", "note": "(stereo in doubt; 16)", "IC50": 348}, {"compound": "O=C(O)c1ccc(COC(=O)c2cccc(CC(=O)N3C(=O)[C@@H](Cc4ccccc4)[C@H]3C(=O)OCc3ccc(C(=O)O)cc3)c2)cc1", "IC50": 5840}, {"compound": "O=C(OCc1ccccc1)c1cccc(CC(=O)N2C(=O)[C@@H](Cc3ccccc3)[C@H]2C(=O)OCc2ccccc2)c1", "IC50": 1430}]}]}
